This is an account of results in patent publication US10457675B2, “Histone deacetylase inhibitors and compositions and methods of use thereof” (CHDI Foundation, Inc., priority 2014, dated 2019).

Test [1] deals with cellular HDAC activity (Lys-Ac). The test is described as follows: Cell (Lys-Ac): cellular HDAC activity. The format is cell-based.
Test [2] deals with cellular histone deacetylase enzymatic activity in Jurkat E6-1 cells. The test is described as follows: Cell (Lys-TFA): cellular HDAC activity in Jurkat E6-1 cells with Boc-Lys(Tfa)-AMC. The format is cell-based. The note with it: Boc-Lys(Tfa)-AMC substrate. How it is done:
The potency of the compounds is quantified by measuring the cellular histone deacetylase enzymatic activity using the fluorogenic substrate, Boc-Lys(Tfa)-AMC. After penetration in Jurkat E6-1 cells, the substrate is deacetylated to Boc-Lys-AMC. After cell lysis and cleavage by trypsin, the fluorophore AMC is released from the deacetylated substrate only. The fluorescence of the sample is directly related to the histone deacetylase activity in the sample.
Jurkat E6.1 cells are cultured according to standard cell culture protocols in Jurkat E6.1 Growth Media (RPMI without phenol red, 10% FBS, 10 mM HEPES, and 1 mM Sodium Pyruvate). Jurkat E6.1 cells are counted using a Coulter Counter and resuspended in Jurkat E6.1 growth media at a concentration of 75,000 cells/35 μL. 35 μL or 75,000 cells is seeded into Greiner microtitre assay plates. The plates are then incubated at 37° C. and 5% CO2 while other assay components are being prepared.
Stocks of 70 μL aliquots of the 10 mM compound in DMSO are prepared and stored at −20° C. […]
5 μL of each solution of 1:20 diluted compound from above is transferred to the Greiner microtitre assay plates with 75,000 cells/well using the Bravo. […] Finally the top read fluorescence (Excitation: 355 nm, Emission: 460 nm) is measured using PerkinElmer EnVision.

For test [3], the target named is Histone Deacetylase 4 (HDAC4) catalytic domain (Homo sapiens (Human), UniProt P56524). The test is described as follows: Biochemical IC50: HDAC enzymatic activity with fluorogenic substrate Boc-Lys(Tfa)-AMC. How it is done: The potency of compounds is quantified by measuring the Histone Deacetylase 4 (HDAC4) catalytic domain enzymatic activity using the fluorogenic substrate, Boc-Lys(Tfa)-AMC. The substrate is deacetylated to Boc-Lys-AMC by HDAC4. Cleavage by trypsin results in the release of the fluorophore AMC from the deacetylated substrate. The fluorescence of the sample is directly related to the histone deacetylase activity in the sample.
Stocks of 60 μL aliquots of the 10 mM compound in DMSO are prepared and stored at −20° C. From one stock aliquot of each compound to be tested and the reference compound, a 16-point serial dilution is prepared according to Table 1 using a 125 μL 16-channel Matrix multi-channel pipette (Matrix Technologies Ltd).
2 μL (200×) of each diluted solution and each control (full activity: 100% DMSO alone or full inhibition 1 mM) is stamped into V-bottomed polypropylene 384-well compound plates using either the Bravo (384-well head from Agilent) or 12.5 μL 16-channel Matrix multi-channel pipette (Matrix Technologies Ltd). […]
5 μL of each solution of 1:20 diluted compound from above is transferred to a clear bottomed, black, 384-well assay plate using the Bravo or the Janus (384-well MDT head from Perkin Elmer). […] Finally, the fluorescence is measured (Excitation: 355 nm, Emission: 460 nm) using PerkinElmer EnVision in top read mode.

The IC50 is the midpoint of a concentration-inhibition curve. The low end stands for greater potency, the high end for weaker potency.

Sequence of Histone Deacetylase 4 (HDAC4) catalytic domain (P56524 648-1032): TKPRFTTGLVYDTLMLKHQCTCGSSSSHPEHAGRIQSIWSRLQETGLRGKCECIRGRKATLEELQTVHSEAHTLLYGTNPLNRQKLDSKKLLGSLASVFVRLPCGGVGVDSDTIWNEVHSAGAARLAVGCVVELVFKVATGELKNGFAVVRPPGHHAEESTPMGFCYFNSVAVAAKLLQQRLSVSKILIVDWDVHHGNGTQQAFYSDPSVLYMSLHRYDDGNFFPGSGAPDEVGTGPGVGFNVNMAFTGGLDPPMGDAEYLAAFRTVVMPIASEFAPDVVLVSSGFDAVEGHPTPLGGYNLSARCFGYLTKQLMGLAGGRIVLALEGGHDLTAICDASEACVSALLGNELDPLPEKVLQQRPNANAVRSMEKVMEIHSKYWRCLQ

Consider `Cc1c(F)cccc1C1(C(=O)NO)CCc2nc(C3CC3)ncc21` (stereo in doubt) [Example 57, (R)-2-Cyclopropyl-5-(3-fluoro-2-methylphenyl)-N-hydroxy-6,7-dihydro-5H-cyclopenta[d]pyrimidine-5-carboxamide], for which the IC50 in test [1] was greater than 50000 nM.

Regarding “5-(3-Fluoro-2-methylphenyl)-N-hydroxy-1-(2,2,2-trifluoroethyl)-4,5,6,7-tetrahydro-1H-indazole-5-carboxamide and 5-(3-fluoro-2-methylphenyl)-N-hydroxy-2-(2,2,2-trifluoroethyl)-4,5,6,7-tetrahydro-2H-indazole-5-carboxamide [Example 35]”, the IC50 in test [2] is 770 nM; in test [1] it was greater than 50000 nM.

“5-(3-Fluoro-2-methylphenyl)-1-(4-fluorobenzyl)-N-hydroxy-4,5,6,7-tetrahydro-1H-indazole-5-carboxamide and 5-(3-fluoro-2-methylphenyl)-2-(4-fluorobenzyl)-N-hydroxy-4,5,6,7-tetrahydro-2H-indazole-5-carboxamide [Example 36]”: the IC50 was 370 nM in test [2], greater than 50000 nM in test [1] and 600 nM in test [3].
